From PubChem BioAssay (NCI)
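Protocol summary: plate cells (96-well), add compound at 5 concentrations, incubate 48 h, interpolate endpoints linearly. Here, GI50 denotes the concentration required for 50% inhibition of growth. The concentration for full growth arrest is given as TGI.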

What was measured:
Assay in all cases: NCI tumour cell line growth inhibition, 48 h
MALME-3M melanoma = tested on: MALME-3M melanoma
786-0 renal = tested on: 786-0 renal
K-562 leukemia = tested on: K-562 leukemia
A549 NSCLC = tested on: A549 NSCLC
SF-295 CNS = tested on: SF-295 CNS
KM12 colon = tested on: KM12 colon
MCF7 breast = tested on: MCF7 breast
MOLT-4 leukemia = tested on: MOLT-4 leukemia
U251 CNS = tested on: U251 CNS
HCT-116 colon = tested on: HCT-116 colon
UACC-62 melanoma = tested on: UACC-62 melanoma
SK-MEL-28 melanoma = tested on: SK-MEL-28 melanoma
SK-OV-3 ovarian = tested on: SK-OV-3 ovarian
LOX IMVI melanoma = tested on: LOX IMVI melanoma
COLO 205 colon = tested on: COLO 205 colon
T-47D breast = tested on: T-47D breast
BT-549 breast = tested on: BT-549 breast
SNB-19 CNS = tested on: SNB-19 CNS
CAKI-1 renal = tested on: CAKI-1 renal
HCC-2998 colon = tested on: HCC-2998 colon
RPMI-8226 leukemia = tested on: RPMI-8226 leukemia
EKVX NSCLC = tested on: EKVX NSCLC
SN12C renal = tested on: SN12C renal
SW-620 colon = tested on: SW-620 colon
SF-539 CNS = tested on: SF-539 CNS
HL-60(TB) leukemia = tested on: HL-60(TB) leukemia
A498 renal = tested on: A498 renal
SNB-75 CNS = tested on: SNB-75 CNS
SF-268 CNS = tested on: SF-268 CNS
OVCAR-4 ovarian = tested on: OVCAR-4 ovarian
SK-MEL-2 melanoma = tested on: SK-MEL-2 melanoma
CCRF-CEM leukemia = tested on: CCRF-CEM leukemia
TK-10 renal = tested on: TK-10 renal
HOP-62 NSCLC = tested on: HOP-62 NSCLC
OVCAR-8 ovarian = tested on: OVCAR-8 ovarian
M14 melanoma = tested on: M14 melanoma
UACC-257 melanoma = tested on: UACC-257 melanoma
NCI-H460 lung = tested on: NCI-H460 lung
OVCAR-5 ovarian = tested on: OVCAR-5 ovarian
ACHN renal = tested on: ACHN renal
NCI-H23 lung = tested on: NCI-H23 lung
RXF 393 renal = tested on: RXF 393 renal
IGROV1 ovarian = tested on: IGROV1 ovarian
UO-31 renal = tested on: UO-31 renal
HOP-92 NSCLC = tested on: HOP-92 NSCLC
SR leukemia = tested on: SR leukemia
HCT-15 colon = tested on: HCT-15 colon
NCI/ADR-RES ovarian = tested on: NCI/ADR-RES ovarian
PC-3 prostate = tested on: PC-3 prostate
MDA-MB-231 breast = tested on: MDA-MB-231 breast
DU-145 prostate = tested on: DU-145 prostate
HT29 colon = tested on: HT29 colon
HS 578T breast = tested on: HS 578T breast
NCI-H226 lung = tested on: NCI-H226 lung
SK-MEL-5 melanoma = tested on: SK-MEL-5 melanoma
MDA-MB-435 = tested on: MDA-MB-435
NCI-H522 lung = tested on: NCI-H522 lung

`CCN(CC)CCCC(C)NCC(=O)NC(c1ccc2c(c1)OCO2)c1cc(Cl)c2cccnc2c1O` (centres undefined) showed a GI50 (MALME-3M melanoma) of 1.68 µM, a TGI (MALME-3M melanoma) of 3.29 µM and a GI50 (786-0 renal) of 2.3 µM. For the same compound, the TGI (786-0 renal) was 5.75 µM, the GI50 (K-562 leukemia) was 0.895 µM and the TGI (K-562 leukemia) was 9.33 µM. The GI50 (A549 NSCLC) was 2.83 µM, the TGI (A549 NSCLC) was 13.4 µM and the GI50 (SF-295 CNS) was 1.56 µM. It also gave a TGI (SF-295 CNS) of 3.41 µM, a GI50 (KM12 colon) of 2.41 µM and a TGI (KM12 colon) of 9.78 µM. For the same compound, the GI50 (MCF7 breast) was 1.59 µM, the TGI (MCF7 breast) was 10.6 µM and the GI50 (MOLT-4 leukemia) was 0.626 µM. For the same compound, the TGI (MOLT-4 leukemia) was 11.2 µM, the GI50 (U251 CNS) was 2.1 µM and the TGI (U251 CNS) was 13 µM. For the same compound, the GI50 (HCT-116 colon) was 1.41 µM, the TGI (HCT-116 colon) was 11.2 µM and the GI50 (UACC-62 melanoma) was 1.83 µM. The TGI (UACC-62 melanoma) was 3.6 µM, the GI50 (SK-MEL-28 melanoma) was 1.47 µM and the TGI (SK-MEL-28 melanoma) was 3.08 µM. It also gave a GI50 (SK-OV-3 ovarian) of 2.93 µM, a TGI (SK-OV-3 ovarian) of 8.45 µM and a GI50 (LOX IMVI melanoma) of 1.22 µM. For the same compound, the TGI (LOX IMVI melanoma) was 3.13 µM, the GI50 (COLO 205 colon) was 2.36 µM and the TGI (COLO 205 colon) was 8.42 µM. The GI50 (T-47D breast) was 2.89 µM, the TGI (T-47D breast) was 9.19 µM and the GI50 (BT-549 breast) was 4.78 µM. The TGI (BT-549 breast) was 17.1 µM, the GI50 (SNB-19 CNS) was 3.23 µM and the TGI (SNB-19 CNS) was 15.2 µM. For the same compound, the GI50 (CAKI-1 renal) was 1.77 µM, the TGI (CAKI-1 renal) was 4.41 µM and the GI50 (HCC-2998 colon) was 1.73 µM. The TGI (HCC-2998 colon) was 4.13 µM, the GI50 (RPMI-8226 leukemia) was 2.36 µM and the TGI (RPMI-8226 leukemia) was 7.77 µM. It also gave a GI50 (EKVX NSCLC) of 1.65 µM, a TGI (EKVX NSCLC) of 11 µM and a GI50 (SN12C renal) of 3.15 µM. For the same compound, the TGI (SN12C renal) was 13.7 µM, the GI50 (SW-620 colon) was 2.32 µM and the TGI (SW-620 colon) was 11.9 µM. For the same compound, the GI50 (SF-539 CNS) was 1.85 µM, the TGI (SF-539 CNS) was 4.05 µM and the GI50 (HL-60(TB) leukemia) was 1.29 µM. It also gave a TGI (HL-60(TB) leukemia) of 4.41 µM, a GI50 (A498 renal) of 2.35 µM and a TGI (A498 renal) of 6.69 µM. The GI50 (SNB-75 CNS) was 2.18 µM, the TGI (SNB-75 CNS) was 8.73 µM and the GI50 (SF-268 CNS) was 2.21 µM. The TGI (SF-268 CNS) was 10.6 µM, the GI50 (OVCAR-4 ovarian) was 1.39 µM and the TGI (OVCAR-4 ovarian) was 14.7 µM. The GI50 (SK-MEL-2 melanoma) was 2.37 µM, the TGI (SK-MEL-2 melanoma) was 6.33 µM and the GI50 (CCRF-CEM leukemia) was 0.909 µM. The TGI (CCRF-CEM leukemia) was 12.2 µM, the GI50 (TK-10 renal) was 3.36 µM and the TGI (TK-10 renal) was 15.1 µM. For the same compound, the GI50 (HOP-62 NSCLC) was 1.56 µM, the TGI (HOP-62 NSCLC) was 6.88 µM and the GI50 (OVCAR-8 ovarian) was 2.56 µM. It also gave a TGI (OVCAR-8 ovarian) of 13.1 µM, a GI50 (M14 melanoma) of 1.42 µM and a TGI (M14 melanoma) of 3.27 µM. The GI50 (UACC-257 melanoma) was 1.92 µM, the TGI (UACC-257 melanoma) was 4.18 µM and the GI50 (NCI-H460 lung) was 1.48 µM. For the same compound, the TGI (NCI-H460 lung) was 6.45 µM, the GI50 (OVCAR-5 ovarian) was 2.73 µM and the TGI (OVCAR-5 ovarian) was 15.5 µM. The GI50 (ACHN renal) was 2.79 µM, the TGI (ACHN renal) was 10.1 µM and the GI50 (NCI-H23 lung) was 2.99 µM. It also gave a TGI (NCI-H23 lung) of 11.2 µM, a GI50 (RXF 393 renal) of 2.33 µM and a TGI (RXF 393 renal) of 10.3 µM. For the same compound, the GI50 (IGROV1 ovarian) was 2.53 µM, the TGI (IGROV1 ovarian) was 10.8 µM and the GI50 (UO-31 renal) was 2.02 µM. The TGI (UO-31 renal) was 7.16 µM, the GI50 (HOP-92 NSCLC) was 1.62 µM and the TGI (HOP-92 NSCLC) was 8.17 µM. The GI50 (SR leukemia) was 0.897 µM, the TGI (SR leukemia) was 5.61 µM and the GI50 (HCT-15 colon) was 2.44 µM. The TGI (HCT-15 colon) was 11.9 µM, the GI50 (NCI/ADR-RES ovarian) was 3.31 µM and the TGI (NCI/ADR-RES ovarian) was 15.5 µM. For the same compound, the GI50 (PC-3 prostate) was 2.03 µM, the TGI (PC-3 prostate) was 12 µM and the GI50 (MDA-MB-231 breast) was 1.35 µM. The TGI (MDA-MB-231 breast) was 11.9 µM, the GI50 (DU-145 prostate) was 2.63 µM and the TGI (DU-145 prostate) was 15.7 µM. The GI50 (HT29 colon) was 2.41 µM, the TGI (HT29 colon) was 10.4 µM and the GI50 (HS 578T breast) was 4.37 µM. For the same compound, the TGI (HS 578T breast) was 22.6 µM, the GI50 (NCI-H226 lung) was 2.12 µM and the TGI (NCI-H226 lung) was 6.71 µM. The GI50 (SK-MEL-5 melanoma) was 1.67 µM, the TGI (SK-MEL-5 melanoma) was 3.11 µM and the GI50 (MDA-MB-435) was 1.81 µM. It also gave a TGI (MDA-MB-435) of 3.87 µM, a GI50 (NCI-H522 lung) of 2.36 µM and a TGI (NCI-H522 lung) of 6.97 µM.
